Here are results for seven compounds from patent US4962111A (priority 1989, dated 1990).

Converted amounts (≈) assume the structure as drawn. Like-named read-outs stand apart in the source and are kept apart here.

Data set [1] concerns Mycobacterium tuberculosis. Kind of data set: microbe, parasite or virus in culture. Particulars: 99% (2 log) inhibition. The data set is classed as cell-based.
A further data set has as its system Mycobacterium kansasii. Nature of the data set: microbe, parasite or virus in culture. It is filed as cell-based. Particulars: 99% (2 log) inhibition.
In data set [2] the test system is BCG (Bacillus Calmette-Guerin, an attenuated Mycobacterium bovis). Nature of the data set: microbe, parasite or virus in culture. The data set is classed as cell-based. The conditions noted are these: Mycobacterium tuberculosis variant bovis BCG, pH 5.8, pH 5.8.
The next data set has as its system tuberculosis. The conditions noted are these: applied subcutaneously; cited from earlier work.
The subject of data set [3] is Mycobacterium tuberculosis H37RV. The conditions noted are these: cited from earlier work.
Data set [4] concerns Mycobacterium tuberculosis. The conditions noted are these: background statement; cited from earlier work.
For data set [5] the following is noted: background statement; cited from earlier work.
Another data set has as its system other mycobacteria. The conditions noted are these: background statement; cited from earlier work.
For the next data set, the system named is M. bovis. Particulars: cited from earlier work.
[6] abbreviates: Mycobacterium tuberculosis, pH 5.8, M. tb. BAK, read-out: MIC.
Where [7] appears, read: Mycobacterium tuberculosis, pH 5.8, M. tb. BUR, read-out: MIC.
[8] abbreviates: Mycobacterium tuberculosis, pH 5.8, M. tb. CES, read-out: MIC.
The mark [9] stands for this setting: Mycobacterium tuberculosis, pH 5.8, M. tb. DOL, read-out: MIC.
Setting [10] is: Mycobacterium tuberculosis, pH 5.8, M. tb. DOU, read-out: MIC.
The mark [11] stands for this setting: Mycobacterium tuberculosis, pH 5.8, M. tb. DUB, read-out: MIC.
Where [12] appears, read: Mycobacterium tuberculosis, pH 5.8, M. tb. GLA, read-out: MIC.
The mark [13] stands for this setting: Mycobacterium tuberculosis, pH 5.8, M. tb. ING, read-out: MIC.
Setting [14] is: Mycobacterium tuberculosis, pH 5.8, M. tb. LFL, read-out: MIC.
Setting [15] is: Mycobacterium tuberculosis, pH 5.8, M. tb. MCQ, read-out: MIC.
Where [16] appears, read: Mycobacterium tuberculosis, pH 5.8, M. tb. SMA, read-out: MIC.
Where [17] appears, read: Mycobacterium tuberculosis, pH 5.8, M. tb. WOO, read-out: MIC.

In the case of `CCCOC(=O)c1cnccn1` [n-Propyl Pyrazinoate], the MIC in data set [1] (setting [6]), in data set [1] (setting [7]), in [1] (setting [8]), in data set [1] (setting [9]), in data set [1] (setting [10]) and in data set [1] (setting [11]) was at most 3.12 µg/mL in each case. The MIC in data set [1] (setting [12]) is 6.25 µg/mL (≈ 37.6 µM); in [1] (setting [13]), at most 3.12 µg/mL; in data set [1] (setting [14]) it was 6.25 µg/mL (≈ 37.6 µM); in data set [1] (setting [15]) it was at most 3.12 µg/mL; in data set [1] (setting [16]), at most 3.12 µg/mL; against Mycobacterium kansasii (pH 5.8, M. kans. SCH) it was 12.5 µg/mL (≈ 75.2 µM). The MIC in the data set on Mycobacterium kansasii (pH 5.8, M. kans. SWK) is 6.25 µg/mL (≈ 37.6 µM); in data set [2], above 200 µg/mL.
Consider Isopropyl thiopyrazinoate, for which the “activity in a standardized mouse test” value with tuberculosis is on record as “exhibited activity”.
For the compound `Cc1ccc(OC(=O)c2cnccn2)cc1` [p-Tolyl Pyrazinoate], the MIC is 25 µg/mL (≈ 117 µM) in data set [1] (M. tb. DOU, pH 5.8); 12.5 µg/mL (≈ 58.4 µM) in data set [1] (setting [6]); 12.5 µg/mL (≈ 58.4 µM) in [1] (setting [7]); 12.5 µg/mL (≈ 58.4 µM) in data set [1] (setting [8]); 6.25 µg/mL (≈ 29.2 µM) in data set [1] (setting [9]); 25 µg/mL (≈ 117 µM) in data set [1] (setting [11]). Besides, the MIC is 6.25 µg/mL (≈ 29.2 µM) in data set [1] (setting [12]); 25 µg/mL (≈ 117 µM) in data set [1] (setting [13]); 12.5 µg/mL (≈ 58.4 µM) in [1] (setting [14]); 6.25 µg/mL (≈ 29.2 µM) in data set [1] (setting [15]); 25 µg/mL (≈ 117 µM) in [1] (setting [16]); 25 µg/mL (≈ 117 µM) in data set [1] (setting [17]). The MIC with Mycobacterium kansasii (pH 5.8, M. kans. SCH) worked out at 12.5 µg/mL (≈ 58.4 µM); in the data set with Mycobacterium kansasii (pH 5.8, M. kans. SWK), 12.5 µg/mL (≈ 58.4 µM); in data set [2] it was 25 µg/mL (≈ 117 µM).
As to `CN(C)CCOC(=O)c1cnccn1` [N,N-dimethyl-2-aminoethyl pyrazinoate], the “in vitro activity against Mycobacterium tuberculosis H37RV” value in data set [3] was “active”.
Regarding `NC(=O)c1cnccn1` [pyrazinamide], in data set [4], the “activity against M. tuberculosis” value is “only active against Mycobacterium (M.) tuberculosis”. Also, the hepatotoxicity entry in data set [5] is reported as “hepatotoxicity”. Besides, in the data set on other mycobacteria, the “activity against other mycobacteria” value is reported as “not active”. Moreover, the MIC in data set [2] is above 200 µg/mL. Also, in the data set on M. bovis, the “activity against M. bovis” value was “not active”.
With `O=C(OCC(F)(F)F)c1cnccn1` [β, β, β-Trifluoroethyl Pyrazinoate], the MIC in data set [1] (setting [6]) worked out at 25 µg/mL (≈ 121 µM); in [1] (setting [7]) it was 25 µg/mL (≈ 121 µM); in data set [1] (setting [8]) it was 12.5 µg/mL (≈ 60.6 µM); in data set [1] (setting [9]) it was 25 µg/mL (≈ 121 µM); in data set [1] (setting [10]), 100 µg/mL (≈ 485 µM); in data set [1] (setting [11]), 25 µg/mL (≈ 121 µM). The MIC is 12.5 µg/mL (≈ 60.6 µM) in [1] (setting [12]); 25 µg/mL (≈ 121 µM) in [1] (setting [13]); 50 µg/mL (≈ 243 µM) in data set [1] (setting [14]); 25 µg/mL (≈ 121 µM) in data set [1] (setting [15]); 25 µg/mL (≈ 121 µM) in data set [1] (setting [16]); 25 µg/mL (≈ 121 µM) in data set [1] (setting [17]). Also, the MIC with Mycobacterium kansasii (pH 5.8, M. kans. SCH) came to 100 µg/mL (≈ 485 µM); with Mycobacterium kansasii (pH 5.8, M. kans. SWK), 200 µg/mL (≈ 970 µM); in data set [2], 200 µg/mL (≈ 970 µM).
As for `C=CCOC(=O)c1cnccn1` [Allyl Pyrazinoate], the MIC in [1] (M. tb. BAK, pH 5.8) was 3.12 µg/mL (≈ 19 µM); in data set [1] (setting [7]) it was 6.25 µg/mL (≈ 38.1 µM); in data set [1] (setting [8]) it was at most 3.12 µg/mL; in [1] (setting [9]), at most 3.12 µg/mL; in [1] (setting [10]), 3.12 µg/mL (≈ 19 µM); in [1] (setting [11]) it was 6.25 µg/mL (≈ 38.1 µM). Further, the MIC in data set [1] (setting [12]) is 6.25 µg/mL (≈ 38.1 µM); in [1] (setting [13]) it was 3.12 µg/mL (≈ 19 µM); in [1] (setting [14]) it was 3.12 µg/mL (≈ 19 µM); in [1] (setting [15]), at most 3.12 µg/mL; in data set [1] (setting [16]), 3.12 µg/mL (≈ 19 µM); in [1] (setting [17]), 6.25 µg/mL (≈ 38.1 µM). The MIC with Mycobacterium kansasii (pH 5.8, M. kans. SCH) is 6.25 µg/mL (≈ 38.1 µM); in the data set on Mycobacterium kansasii (pH 5.8, M. kans. SWK) it was 6.25 µg/mL (≈ 38.1 µM); in data set [2], 100 µg/mL (≈ 609 µM).
